In PubChem BioAssay (NCI):
“And” between values parts separate entries of the source, which are not always exact repeats. Identical values can stand only once.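 Assay format: 96-well plates, 48-hour exposure. GI50: concentration for 50% inhibition of growth. TGI marks complete inhibition of growth.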

Key:
Test in all cases: DTP human tumour cell line panel, 48 h
SF-268 CNS = tested on: SF-268 CNS
SNB-75 CNS = tested on: SNB-75 CNS
SK-MEL-28 melanoma = tested on: SK-MEL-28 melanoma
MDA-MB-231 breast = tested on: MDA-MB-231 breast
PC-3 prostate = tested on: PC-3 prostate
UACC-257 melanoma = tested on: UACC-257 melanoma
HOP-62 NSCLC = tested on: HOP-62 NSCLC
T-47D breast = tested on: T-47D breast
SF-295 CNS = tested on: SF-295 CNS
NCI-H522 lung = tested on: NCI-H522 lung

Row | Compound | GI50 (SF-268 CNS) | TGI (SF-268 CNS) | GI50 (SNB-75 CNS) | TGI (SNB-75 CNS) | GI50 (SK-MEL-28 melanoma) | TGI (SK-MEL-28 melanoma) | GI50 (MDA-MB-231 breast) | TGI (MDA-MB-231 breast) | GI50 (PC-3 prostate) | TGI (PC-3 prostate) | GI50 (UACC-257 melanoma) | TGI (UACC-257 melanoma) | GI50 (HOP-62 NSCLC) | TGI (HOP-62 NSCLC) | GI50 (T-47D breast) | TGI (T-47D breast) | GI50 (SF-295 CNS) | TGI (SF-295 CNS) | GI50 (NCI-H522 lung) | TGI (NCI-H522 lung)
1 | COc1ccc(S(=O)(=O)NC2=NCCN2C(=S)SN2CCn3c2nsc3=S)cc1OC | 23.2 µM | 79.2 µM | 12.7 µM | 46.4 µM | 16.5 µM | 37.5 µM | 26.3 µM | > 100 µM | 27.1 µM | 94 µM | 25.1 µM | 82.9 µM | 27.5 µM | 78.3 µM | 15.3 µM | 35.3 µM | 20.9 µM | 56.2 µM | 13 µM | 38.8 µM
2 | O=C(Nc1ccc(Cl)cc1F)c1cc(F)ccc1O | 0.854 µM | 12.1 µM | 0.39 µM | 6.16 µM | 0.485 µM | 2.63 µM | 0.761 µM | 3.81 µM | 1.49 µM | 6.73 µM | 0.853 µM | 7.2 µM | 1.5 µM | 19.8 µM | 0.904 µM | > 23.5 µM | 1.8 µM | 3.57 µM | 0.379 µM | 9.26 µM
3 | CCc1nc(-n2c(CC)nc3ccccc3c2=O)nc(N)c1-c1ccc(Cl)cc1 | > 40.4 µM | > 100 µM | > 100 µM | > 100 µM | > 100 µM | > 100 µM | > 100 µM | > 100 µM | 5.74 µM | > 100 µM | 13 µM | > 94.3 µM | 44.8 µM | > 100 µM | > 60.4 µM | > 100 µM | 12.6 µM | > 100 µM | > 100 µM | > 100 µM
4 | COc1ccccc1-c1ccc2nc(NC(=O)Nc3cc(C(F)(F)F)cc(C(F)(F)F)c3)sc2c1 | 2.86 µM | 12.2 µM | 2.25 µM | 11.8 µM | 2.51 µM | 9.1 µM | 1.95 µM | 4.24 µM | 1.49 µM | 6.93 µM | 2.31 µM | 6.52 µM | 2.1 µM | 4.99 µM | 2.16 µM | 9.89 µM | 2.64 µM | 9.33 µM | 1.76 µM | 9.35 µM
5 | Cc1cc(Nc2cc(CN3CCOCC3)c3nc(C)c(Cc4ccc(Cl)cc4F)n3n2)n[nH]1 | 1.03 µM | 4.65 µM | 0.433 µM | 2.4 µM | 3.5 µM | 17.2 µM | 1.57 µM | 5.65 µM | 2.07 µM | 18.3 µM | 3.35 µM | 16.2 µM | 1.84 µM | 9.49 µM | 1.23 µM | 16.2 µM | 1.79 µM | 5.73 µM | 0.566 µM | 2.02 µM
6 | COc1cc(/C=C/C(=O)NC[C@]2(O)CCC3C4CCc5cc(O)ccc5C4CCC32C)ccc1O (stereo partly drawn) | 96.1 µM | > 100 µM | 42.5 µM | > 100 µM | 33.9 µM | > 100 µM | 18 µM | > 100 µM | 5.2 µM | > 100 µM | 39.5 µM | > 100 µM | 26.7 µM | > 100 µM | 6.53 µM | > 100 µM | 6.71 µM | > 100 µM | 6.89 µM | 51.7 µM
7 | O=C1c2ccccc2C(=O)c2c(NC(=O)C(Cl)CCl)cccc21 (stereo not drawn) |  | 25 µM |  | 32.4 µM |  | 35.5 µM |  | 18.4 µM |  | 24.3 µM |  | 36.5 µM |  | 23.6 µM |  | > 27.5 µM |  | > 62.1 µM |  | 7.13 µM
8 | FC(F)(F)c1[nH]ncc1-c1nc2c(N3CCCCC3)cc3[nH]ncc3c2c2c1CCCC2 | 0.786 µM | 1.97 µM | 0.533 µM | 1.2 µM | 0.617 µM | 1.78 µM | 0.806 µM | 3.08 µM | 0.91 µM | > 13.8 µM | 1.09 µM | 3.58 µM | 0.699 µM | 3.12 µM | 0.756 µM | > 13.7 µM | 0.857 µM | 3.16 µM | 0.485 µM | 3.24 µM
9 | [C-]#[O+].[C-]#[O+].[Ir].[O-]c1ccc2ccccc2c1N=Nc1ccccc1 | 22.7 µM | 61.5 µM |  | 59.6 µM |  | 24.7 µM |  | 40.7 µM |  | 54 µM |  | 14.4 µM |  | > 100 µM | 11.9 µM | 33.5 µM | 45.9 µM | > 72.1 µM |  | 4.01 µM
10 | COc1ccc(-c2ccc3ncc4c(c3c2)n(-c2ccc(N3CCNCC3)c(C(F)(F)F)c2)c(=O)n4C)cn1 | < 0.01 µM and 0.00867 µM | 0.755 µM and 1.22 µM | < 0.01 µM and 0.00263 µM | 0.0129 µM and 0.0255 µM | < 0.01 µM and 0.00679 µM | 0.101 µM and 0.0648 µM | < 0.01 µM and 0.00601 µM | 0.823 µM and 0.446 µM | < 0.01 µM and 0.00281 µM | 0.799 µM and 1.12 µM | 0.0169 µM and 0.021 µM | 0.11 µM and 0.118 µM | < 0.01 µM and 0.0119 µM | 0.378 µM and 0.428 µM | < 0.01 µM and 0.00189 µM | < 0.01 µM and 0.021 µM | < 0.01 µM and 0.00331 µM | 0.0284 µM and 0.032 µM | < 0.01 µM and 0.00669 µM | 1.07 µM and 0.379 µM
11 | Clc1nc(Cl)c2ncn(C/C=C/Cn3cnc4c(Cl)nc(Cl)nc43)c2n1 | 14.6 µM | 30.5 µM | 19.1 µM | 44 µM | 17.5 µM | 33 µM | 21.2 µM | 38 µM | 17.5 µM | 33.2 µM | 11 µM | 27.8 µM | 15.6 µM | 32.9 µM | 11.2 µM | 32 µM | 16.8 µM | 31.3 µM | 6.75 µM | 22.7 µM
12 | COc1cccc2c1C(=O)c1c(O)c3c(c(O)c1C2=O)C[C@@](O)(C(=O)CO)C[C@@H]3OC1CC(OC(C)=O)C(OC(C)=O)C(C)O1 (stereo partly drawn) | 0.287 µM | 4.46 µM | 0.687 µM | 8.53 µM | 1.39 µM | 3.2 µM | 2.89 µM | 15.6 µM | 1.48 µM | > 23.3 µM | 1.37 µM | 4.25 µM | 0.314 µM | 2.27 µM | 0.237 µM | 1.99 µM | 0.234 µM | 1.25 µM | 0.578 µM | 3.36 µM
13 | COc1ccc(N2CCN(CN3CCN(c4ccc(OC)cc4)C3)C2)cc1 | > 100 µM | > 100 µM | > 100 µM | > 100 µM | > 100 µM | > 100 µM | > 100 µM | > 100 µM | > 100 µM | > 100 µM | > 100 µM | > 100 µM | 81.5 µM | > 100 µM | > 100 µM | > 100 µM | > 100 µM | > 100 µM | > 100 µM | > 100 µM
